Experimental data taken from ChEMBL document CHEMBL5058645, “Data for DCP probe JNJ-6204” (2022).

Assays:
[1] = target: Cyclin-dependent kinase 16 (Homo sapiens) (UniProt Q00536); assay: CDK16/cyclinY(h) Kinase panel; details: Compound concentration 1.0 uM, tested as the 2H-labelled form
[2] = target: Serine/threonine-protein kinase PLK3 (Homo sapiens) (UniProt Q9H4B4); assay: Plk3(h) Kinase panel; details: Compound concentration 1.0 uM, tested as the 2H-labelled form
[3] = target: NUAK family SNF1-like kinase 1 (Homo sapiens) (UniProt O60285); assay: ARK5(h) Kinase panel; details: Compound concentration 1.0 uM, tested as the 2H-labelled form
[4] = target: Serine/threonine-protein kinase 25 (Homo sapiens) (UniProt O00506); assay: STK25(h) Kinase panel; details: Compound concentration 1.0 uM, tested as the 2H-labelled form
[5] = target: Serine/threonine-protein kinase PAK 4 (Homo sapiens) (UniProt O96013); assay: PAK4(h) Kinase panel; details: Compound concentration 1.0 uM, tested as the 2H-labelled form
[6] = target: Death-associated protein kinase 3 (Homo sapiens) (UniProt O43293); assay: ZIPK(h) Kinase panel; details: Compound concentration 1.0 uM, tested as the 2H-labelled form
[7] = target: 5'-AMP-activated protein kinase catalytic subunit alpha-1 (Homo sapiens) (UniProt Q13131); assay: AMPKalpha1(h) Kinase panel; details: Compound concentration 1.0 uM, tested as the 2H-labelled form
[8] = target: Serine/threonine-protein kinase TBK1 (Homo sapiens) (UniProt Q9UHD2); assay: TBK1(h) Kinase panel; details: Compound concentration 1.0 uM, tested as the 2H-labelled form
[9] = target: Calcium/calmodulin-dependent protein kinase kinase 1 (Homo sapiens) (UniProt Q8N5S9); assay: CaMKK1(h) Kinase panel; details: Compound concentration 1.0 uM, tested as the 2H-labelled form
[10] = target: Alpha-1B adrenergic receptor (Homo sapiens) (UniProt P35368); details: Compound concentration 10.0 uM, tested as the 2H-labelled form
[11] = target: Mast/stem cell growth factor receptor Kit (Homo sapiens) (UniProt P10721); assay: cKit(h) Kinase panel; details: Compound concentration 1.0 uM, tested as the 2H-labelled form
[12] = target: Histamine H2 receptor (Homo sapiens) (UniProt P25021); details: Compound concentration 10.0 uM, tested as the 2H-labelled form
[13] = target: Ephrin type-A receptor 3 (Homo sapiens) (UniProt P29320); assay: EphA3(h) Kinase panel; details: Compound concentration 1.0 uM, tested as the 2H-labelled form
[14] = target: Serine/threonine-protein kinase BRSK2 (Homo sapiens) (UniProt Q8IWQ3); assay: BrSK2(h) Kinase panel; details: Compound concentration 1.0 uM, tested as the 2H-labelled form
[15] = target: Interleukin-1 receptor-associated kinase 4 (Homo sapiens) (UniProt Q9NWZ3); assay: IRAK4(h) Kinase panel; details: Compound concentration 1.0 uM, tested as the 2H-labelled form
[16] = target: Cyclin-dependent kinase-like 3 (Homo sapiens) (UniProt Q8IVW4); assay: CDKL3(h) Kinase panel; details: Compound concentration 1.0 uM, tested as the 2H-labelled form
[17] = target: Histamine H4 receptor (Homo sapiens) (UniProt Q9H3N8); details: Compound concentration 10.0 uM, tested as the 2H-labelled form
[18] = target: Dual specificity mitogen-activated protein kinase kinase 1 (Homo sapiens) (UniProt Q02750); assay: MEK1(h) Kinase panel; details: Compound concentration 1.0 uM, tested as the 2H-labelled form
[19] = target: Ribosomal protein S6 kinase alpha-2 (Homo sapiens) (UniProt Q15349); assay: Rsk3(h) Kinase panel; details: Compound concentration 1.0 uM, tested as the 2H-labelled form
[20] = target: Tyrosine-protein kinase JAK3 (Homo sapiens) (UniProt P52333); assay: JAK3(h) Kinase panel; details: Compound concentration 1.0 uM, tested as the 2H-labelled form
[21] = target: Serine/threonine-protein kinase Nek2 (Homo sapiens) (UniProt P51955); assay: NEK2(h) Kinase panel; details: Compound concentration 1.0 uM, tested as the 2H-labelled form
[22] = target: Muscarinic acetylcholine receptor M1 (Homo sapiens) (UniProt P11229); details: Compound concentration 10.0 uM, tested as the 2H-labelled form
[23] = target: Tyrosine-protein kinase JAK1 (Homo sapiens) (UniProt P23458); assay: JAK1(h) Kinase panel; details: Compound concentration 1.0 uM, tested as the 2H-labelled form
[24] = target: BDNF/NT-3 growth factors receptor (Homo sapiens) (UniProt Q16620); assay: TrkB(h) Kinase panel; details: Compound concentration 1.0 uM, tested as the 2H-labelled form
[25] = target: Phosphorylase b kinase gamma catalytic chain, testis/liver isoform (Homo sapiens) (UniProt P15735); assay: PhKgamma2(h) Kinase panel; details: Compound concentration 1.0 uM, tested as the 2H-labelled form
[26] = target: Cyclin-dependent kinase 4 (Homo sapiens) (UniProt P11802); assay: CDK4/cyclinD3(h) Kinase panel; details: Compound concentration 1.0 uM, tested as the 2H-labelled form
[27] = target: G protein-coupled receptor kinase 3 (Homo sapiens) (UniProt P35626); assay: GRK3(h) Kinase panel; details: Compound concentration 1.0 uM, tested as the 2H-labelled form
[28] = target: Ephrin type-A receptor 4 (Homo sapiens) (UniProt P54764); assay: EphA4(h) Kinase panel; details: Compound concentration 1.0 uM, tested as the 2H-labelled form
[29] = target: Mitogen-activated protein kinase kinase kinase 3 (Homo sapiens) (UniProt Q99759); assay: MEKK3(h) Kinase panel; details: Compound concentration 1.0 uM, tested as the 2H-labelled form
[30] = target: Serine/threonine-protein kinase NIM1 (Homo sapiens) (UniProt Q8IY84); assay: NIM1(h) Kinase panel; details: Compound concentration 1.0 uM, tested as the 2H-labelled form
[31] = target: Tau-tubulin kinase 2 (Homo sapiens) (UniProt Q6IQ55); assay: TTBK2(h) Kinase panel; details: Compound concentration 1.0 uM, tested as the 2H-labelled form
[32] = target: Mitogen-activated protein kinase kinase kinase 21 (Homo sapiens) (UniProt Q5TCX8); assay: MLK4(h) Kinase panel; details: Compound concentration 1.0 uM, tested as the 2H-labelled form
[33] = target: Serine/threonine-protein kinase PAK 3 (Homo sapiens) (UniProt O75914); assay: PAK3(h) Kinase panel; details: Compound concentration 1.0 uM, tested as the 2H-labelled form
[34] = target: Focal adhesion kinase 1 (Homo sapiens) (UniProt Q05397); assay: FAK(h) Kinase panel; details: Compound concentration 1.0 uM, tested as the 2H-labelled form
[35] = target: Serine/threonine-protein kinase DCLK3 (Homo sapiens) (UniProt Q9C098); assay: DCAMKL3(h) Kinase panel; details: Compound concentration 1.0 uM, tested as the 2H-labelled form
[36] = target: Cyclin-dependent kinase 14 (Homo sapiens) (UniProt O94921); assay: CDK14/cyclinY(h) Kinase panel; details: Compound concentration 1.0 uM, tested as the 2H-labelled form
[37] = target: Calcium/calmodulin-dependent protein kinase type II subunit beta (Homo sapiens) (UniProt Q13554); assay: CaMKIIbeta(h) Kinase panel; details: Compound concentration 1.0 uM, tested as the 2H-labelled form
[38] = target: Phosphatidylinositol 4-phosphate 3-kinase C2 domain-containing subunit alpha (Homo sapiens) (UniProt O00443); assay: PI3KC2a(h) Kinase panel; details: Compound concentration 1.0 uM, tested as the 2H-labelled form
[39] = target: Vascular endothelial growth factor receptor 3 (Homo sapiens) (UniProt P35916); assay: Flt4(h) Kinase panel; details: Compound concentration 1.0 uM, tested as the 2H-labelled form
[40] = target: Serine/threonine-protein kinase N1 (Homo sapiens) (UniProt Q16512); assay: PRK1(h) Kinase panel; details: Compound concentration 1.0 uM, tested as the 2H-labelled form
[41] = target: Mitogen-activated protein kinase 1 (Homo sapiens) (UniProt P28482); assay: MAPK1(h) Kinase panel; details: Compound concentration 1.0 uM, tested as the 2H-labelled form
[42] = target: Calcium/calmodulin-dependent protein kinase type II subunit gamma (Homo sapiens) (UniProt Q13555); assay: CaMKIIgamma(h) Kinase panel; details: Compound concentration 1.0 uM, tested as the 2H-labelled form
[43] = target: Misshapen-like kinase 1 (Homo sapiens) (UniProt Q8N4C8); assay: MINK(h) Kinase panel; details: Compound concentration 1.0 uM, tested as the 2H-labelled form
[44] = target: Glycogen synthase kinase-3 beta (Homo sapiens) (UniProt P49841); assay: GSK3β(h) Kinase panel; details: Compound concentration 1.0 uM, tested as the 2H-labelled form
[45] = target: Protein-tyrosine kinase 2-beta (Homo sapiens) (UniProt Q14289); assay: Pyk2(h) Kinase panel; details: Compound concentration 1.0 uM, tested as the 2H-labelled form
[46] = target: Receptor tyrosine-protein kinase erbB-4 (Homo sapiens) (UniProt Q15303); assay: ErbB4(h) Kinase panel; details: Compound concentration 1.0 uM, tested as the 2H-labelled form
[47] = target: Cell division cycle 7-related protein kinase (Homo sapiens) (UniProt O00311); assay: Cdc7/cyclinB1(h) Kinase panel; details: Compound concentration 1.0 uM, tested as the 2H-labelled form
[48] = target: Protein kinase C beta type (Homo sapiens) (UniProt P05771); assay: PKCbetaII (h) Kinase panel; details: Compound concentration 1.0 uM, tested as the 2H-labelled form
[49] = target: Dual specificity tyrosine-phosphorylation-regulated kinase 3 (Homo sapiens) (UniProt O43781); assay: DYRK3(h) Kinase panel; details: Compound concentration 1.0 uM, tested as the 2H-labelled form
[50] = target: Testis-specific serine/threonine-protein kinase 3 (Homo sapiens) (UniProt Q96PN8); assay: TSSK3(h) Kinase panel; details: Compound concentration 1.0 uM, tested as the 2H-labelled form
[51] = target: Inhibitor of nuclear factor kappa-B kinase subunit epsilon (Homo sapiens) (UniProt Q14164); assay: IKKepsilon(h) Kinase panel; details: Compound concentration 1.0 uM, tested as the 2H-labelled form

Sequence of Serine/threonine-protein kinase PLK3 (Homo sapiens) (Q9H4B4 whole entry, looked up): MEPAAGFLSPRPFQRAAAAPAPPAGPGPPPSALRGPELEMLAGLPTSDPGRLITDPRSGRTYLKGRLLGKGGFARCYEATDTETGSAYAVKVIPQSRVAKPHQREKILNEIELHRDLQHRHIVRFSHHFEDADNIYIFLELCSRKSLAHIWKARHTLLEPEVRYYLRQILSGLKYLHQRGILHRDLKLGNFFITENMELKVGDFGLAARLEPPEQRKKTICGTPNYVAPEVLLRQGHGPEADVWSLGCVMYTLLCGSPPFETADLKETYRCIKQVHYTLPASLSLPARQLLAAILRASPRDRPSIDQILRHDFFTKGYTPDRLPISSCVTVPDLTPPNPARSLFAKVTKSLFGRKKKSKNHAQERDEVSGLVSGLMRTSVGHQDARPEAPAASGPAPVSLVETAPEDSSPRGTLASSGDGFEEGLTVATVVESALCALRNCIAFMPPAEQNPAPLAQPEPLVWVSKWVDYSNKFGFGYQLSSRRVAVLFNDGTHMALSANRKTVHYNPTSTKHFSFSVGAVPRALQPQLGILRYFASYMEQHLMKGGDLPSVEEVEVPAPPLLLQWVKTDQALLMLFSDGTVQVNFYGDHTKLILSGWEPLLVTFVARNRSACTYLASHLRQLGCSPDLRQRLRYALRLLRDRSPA
Sequence of Misshapen-like kinase 1 (Homo sapiens) (Q8N4C8 whole entry, looked up): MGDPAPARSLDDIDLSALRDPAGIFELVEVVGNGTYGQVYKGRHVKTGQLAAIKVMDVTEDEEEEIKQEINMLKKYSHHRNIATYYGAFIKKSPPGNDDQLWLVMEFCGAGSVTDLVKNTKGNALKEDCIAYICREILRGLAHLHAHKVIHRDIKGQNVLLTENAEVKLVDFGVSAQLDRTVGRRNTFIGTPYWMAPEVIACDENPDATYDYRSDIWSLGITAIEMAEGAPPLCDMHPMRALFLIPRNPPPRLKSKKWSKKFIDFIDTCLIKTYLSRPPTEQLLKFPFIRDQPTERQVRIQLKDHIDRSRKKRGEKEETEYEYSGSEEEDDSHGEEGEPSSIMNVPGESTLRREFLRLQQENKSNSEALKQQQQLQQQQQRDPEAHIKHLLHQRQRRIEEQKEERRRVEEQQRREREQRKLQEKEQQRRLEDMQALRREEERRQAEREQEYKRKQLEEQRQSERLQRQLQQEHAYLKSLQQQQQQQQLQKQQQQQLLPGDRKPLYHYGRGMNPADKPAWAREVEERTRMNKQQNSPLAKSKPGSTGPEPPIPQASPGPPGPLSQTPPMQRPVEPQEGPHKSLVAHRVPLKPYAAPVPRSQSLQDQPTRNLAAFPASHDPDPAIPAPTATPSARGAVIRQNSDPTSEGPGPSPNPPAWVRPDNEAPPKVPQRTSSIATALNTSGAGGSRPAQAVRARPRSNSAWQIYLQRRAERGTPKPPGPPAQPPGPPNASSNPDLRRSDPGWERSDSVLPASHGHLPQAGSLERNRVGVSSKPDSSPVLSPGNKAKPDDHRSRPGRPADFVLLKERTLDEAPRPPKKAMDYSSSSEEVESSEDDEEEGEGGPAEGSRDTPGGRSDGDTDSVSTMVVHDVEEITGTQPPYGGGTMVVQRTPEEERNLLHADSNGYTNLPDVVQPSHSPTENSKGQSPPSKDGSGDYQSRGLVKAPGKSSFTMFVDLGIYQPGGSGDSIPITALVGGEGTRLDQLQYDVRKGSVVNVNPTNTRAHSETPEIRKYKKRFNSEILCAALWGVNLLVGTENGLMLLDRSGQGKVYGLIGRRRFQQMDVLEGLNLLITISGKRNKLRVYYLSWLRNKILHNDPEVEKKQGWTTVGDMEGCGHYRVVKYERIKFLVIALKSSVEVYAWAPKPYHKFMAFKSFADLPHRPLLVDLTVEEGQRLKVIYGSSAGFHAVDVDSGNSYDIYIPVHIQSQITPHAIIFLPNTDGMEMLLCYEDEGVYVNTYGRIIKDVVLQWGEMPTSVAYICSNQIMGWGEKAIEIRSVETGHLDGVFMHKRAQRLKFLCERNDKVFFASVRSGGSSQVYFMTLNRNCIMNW
Sequence of Vascular endothelial growth factor receptor 3 (Homo sapiens) (P35916 whole entry): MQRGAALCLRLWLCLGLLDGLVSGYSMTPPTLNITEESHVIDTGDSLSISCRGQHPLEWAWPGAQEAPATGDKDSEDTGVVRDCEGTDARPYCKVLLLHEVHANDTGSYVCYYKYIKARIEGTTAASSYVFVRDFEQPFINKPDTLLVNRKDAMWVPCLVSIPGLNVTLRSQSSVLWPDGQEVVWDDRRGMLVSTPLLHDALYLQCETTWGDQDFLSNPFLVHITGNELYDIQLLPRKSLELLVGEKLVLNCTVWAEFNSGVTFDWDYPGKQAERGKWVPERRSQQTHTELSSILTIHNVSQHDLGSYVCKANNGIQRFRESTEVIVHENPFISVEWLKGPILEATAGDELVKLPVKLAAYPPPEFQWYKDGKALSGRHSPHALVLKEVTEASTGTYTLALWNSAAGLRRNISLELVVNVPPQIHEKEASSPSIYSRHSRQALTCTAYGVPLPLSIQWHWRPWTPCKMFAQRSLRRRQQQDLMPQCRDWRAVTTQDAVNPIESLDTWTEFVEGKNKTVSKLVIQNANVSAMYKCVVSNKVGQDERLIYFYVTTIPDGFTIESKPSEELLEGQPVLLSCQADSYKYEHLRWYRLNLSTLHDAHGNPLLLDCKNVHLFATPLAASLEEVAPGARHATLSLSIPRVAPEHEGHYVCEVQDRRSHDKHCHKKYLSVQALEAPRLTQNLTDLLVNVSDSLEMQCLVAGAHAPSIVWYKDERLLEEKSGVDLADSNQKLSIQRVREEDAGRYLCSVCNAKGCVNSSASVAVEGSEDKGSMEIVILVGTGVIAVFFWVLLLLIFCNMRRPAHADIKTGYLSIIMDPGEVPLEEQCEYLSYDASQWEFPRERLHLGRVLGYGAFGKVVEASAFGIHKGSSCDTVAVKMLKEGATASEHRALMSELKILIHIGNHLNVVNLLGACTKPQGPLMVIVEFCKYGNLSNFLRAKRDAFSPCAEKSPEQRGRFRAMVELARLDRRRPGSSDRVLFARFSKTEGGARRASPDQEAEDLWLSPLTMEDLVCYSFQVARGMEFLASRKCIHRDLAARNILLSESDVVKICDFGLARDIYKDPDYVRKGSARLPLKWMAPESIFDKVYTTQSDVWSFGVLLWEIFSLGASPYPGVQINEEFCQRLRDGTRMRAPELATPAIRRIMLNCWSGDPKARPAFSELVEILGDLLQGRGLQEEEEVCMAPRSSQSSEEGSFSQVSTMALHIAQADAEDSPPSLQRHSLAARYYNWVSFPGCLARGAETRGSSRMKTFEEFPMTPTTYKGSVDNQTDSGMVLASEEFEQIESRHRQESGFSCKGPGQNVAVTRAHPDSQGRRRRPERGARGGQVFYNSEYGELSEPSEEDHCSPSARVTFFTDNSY
Sequence of Protein-tyrosine kinase 2-beta (Homo sapiens) (Q14289 whole entry, looked up): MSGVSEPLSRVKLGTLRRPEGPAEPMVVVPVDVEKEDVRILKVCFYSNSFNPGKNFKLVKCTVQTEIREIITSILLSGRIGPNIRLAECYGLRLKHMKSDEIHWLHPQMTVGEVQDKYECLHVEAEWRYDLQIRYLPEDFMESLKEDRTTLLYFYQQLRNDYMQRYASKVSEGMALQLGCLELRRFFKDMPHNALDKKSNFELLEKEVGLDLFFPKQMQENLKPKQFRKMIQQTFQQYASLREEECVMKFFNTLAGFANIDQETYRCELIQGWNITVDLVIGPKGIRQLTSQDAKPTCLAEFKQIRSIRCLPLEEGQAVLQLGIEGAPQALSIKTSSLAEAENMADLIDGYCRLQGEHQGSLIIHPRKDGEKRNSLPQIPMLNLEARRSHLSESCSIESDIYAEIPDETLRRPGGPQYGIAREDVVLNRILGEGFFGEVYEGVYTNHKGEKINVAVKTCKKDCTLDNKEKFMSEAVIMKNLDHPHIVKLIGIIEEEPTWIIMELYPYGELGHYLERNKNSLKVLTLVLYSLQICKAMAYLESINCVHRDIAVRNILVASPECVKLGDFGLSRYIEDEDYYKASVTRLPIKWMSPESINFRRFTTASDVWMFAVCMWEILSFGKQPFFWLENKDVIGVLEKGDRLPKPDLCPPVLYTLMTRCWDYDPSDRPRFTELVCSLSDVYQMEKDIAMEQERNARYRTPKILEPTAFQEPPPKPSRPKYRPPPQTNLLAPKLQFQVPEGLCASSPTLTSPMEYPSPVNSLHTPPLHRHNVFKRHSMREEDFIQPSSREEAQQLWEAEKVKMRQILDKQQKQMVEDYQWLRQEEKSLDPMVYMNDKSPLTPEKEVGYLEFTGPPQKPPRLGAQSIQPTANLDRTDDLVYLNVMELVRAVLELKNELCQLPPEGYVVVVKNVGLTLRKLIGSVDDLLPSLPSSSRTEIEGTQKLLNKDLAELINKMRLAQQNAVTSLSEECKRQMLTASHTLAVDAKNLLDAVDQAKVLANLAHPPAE
Sequence of Dual specificity tyrosine-phosphorylation-regulated kinase 3 (Homo sapiens) (O43781 whole entry): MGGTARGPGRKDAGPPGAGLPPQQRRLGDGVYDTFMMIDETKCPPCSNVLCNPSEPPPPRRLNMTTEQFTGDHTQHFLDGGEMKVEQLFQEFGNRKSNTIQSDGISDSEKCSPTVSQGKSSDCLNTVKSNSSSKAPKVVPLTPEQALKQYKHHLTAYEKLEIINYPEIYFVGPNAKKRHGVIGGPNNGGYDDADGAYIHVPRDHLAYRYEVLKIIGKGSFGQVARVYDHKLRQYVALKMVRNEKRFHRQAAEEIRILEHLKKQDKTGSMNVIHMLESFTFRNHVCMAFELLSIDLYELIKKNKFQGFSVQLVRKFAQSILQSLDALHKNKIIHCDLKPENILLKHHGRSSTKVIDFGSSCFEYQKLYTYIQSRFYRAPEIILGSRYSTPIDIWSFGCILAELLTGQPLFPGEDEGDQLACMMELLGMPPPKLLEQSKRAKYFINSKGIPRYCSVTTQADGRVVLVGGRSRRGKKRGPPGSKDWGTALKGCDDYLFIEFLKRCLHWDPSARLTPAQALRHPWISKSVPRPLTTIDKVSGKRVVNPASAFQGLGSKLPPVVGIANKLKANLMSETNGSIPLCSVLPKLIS

- inhibition [1]: 12%
- inhibition [2]: -7%
- inhibition [3]: 1%
- inhibition [4]: 21%
- inhibition [5]: -5%
- inhibition [7]: 0%
- inhibition [8]: 24%
- inhibition [9]: 2%
- inhibition [10]: 1.82%
- inhibition [11]: -6%
- inhibition [12]: -1.3%
- inhibition [13]: -6%
- inhibition [14]: -2%
- inhibition [15]: -7%
- inhibition [16]: -7%
- inhibition [17]: 24.7%
- inhibition [18]: 4%
- inhibition [19]: -7%
- inhibition [20]: 0%
- inhibition [21]: 6%
- inhibition [22]: -1.28%
- inhibition [23]: -2%
- inhibition [24]: -5%
- inhibition [25]: -9%
- inhibition [26]: 13%
- inhibition [27]: 15%
- inhibition [28]: 0%
- inhibition [29]: -4%
- inhibition [30]: 13%
- inhibition [31]: 0%
- inhibition [32]: 20%
- inhibition [33]: 9%
- inhibition [34]: 1%
- inhibition [35]: -6%
- inhibition [36]: 9%
- inhibition [37]: 18%
- inhibition [38]: -2%
- inhibition [39]: 7%
- inhibition [40]: 9%
- inhibition [41]: 20%
- inhibition [42]: -2%
- inhibition [43]: 2%
- inhibition [44]: 4%
- inhibition [45]: -2%
- inhibition [46]: 19%
- inhibition [47]: 10%
- inhibition [48]: -3%
- inhibition [49]: 7%
- inhibition [50]: 2%
- inhibition [51]: -1%
SMILES: CC1(C)Cn2nc(-c3ccc(F)cn3)c(-c3ccnc4[nH]ncc34)c2CO1
- inhibition [6]: 13%
